We go through nine molecules from publication PMC12169489, “Allosteric Covalent Inhibitors of the STAT3 Transcription Factor from Virtual Screening” (ACS Medicinal Chemistry Letters, 2025).

Where “and” joins values, the source holds several entries; their conditions need not be identical. Equal entries are not always repeated.

The target of assay [1] is T1, STAT3 protein (residues 127–688) (Homo sapiens, UniProt P40763).
T1 construct: The STAT3 protein (residues 127–688) was expressed and purified; made in house
Put plainly: Fluorescence polarization (FP) assay, 5-FAM-G(pTyr)LPQTV-NH2 peptide. The note with it: 200 nM STAT3, 5 nM fluorescent peptide, 1 h at 37 °C preincubation, mean ± 95% confidence interval, 3 replicas. Format: binding. The method, then:
The STAT3 protein (residues 127–688) was expressed and purified as described in our recent work. Fluorescence polarization assays were performed on a Molecular Devices SpectraMax iD5Multimode Microplate Reader (San Jose, CA, USA) using Greiner black 384-well flat-bottom nonbinding microplates with 40 μL final well volumes. The fluorescent peptide (5-FAM-G(pTyr)-LPQTV-NH2, purchased from GenScript Biotech Ltd., Piscataway, NJ, USA), as well as the protein were diluted with a buffer containing 50 mM NaCl, 10 mM HEPES (4-(2-hydroxyethyl)-1-piperazineethanesulfonic acid), 1 mM EDTA (ethylenediaminetetraacetic acid), 2 mM DTT (dithiothreitol), and 0.1% Triton X-100, pH 7.5. The final concentration of the STAT3 protein was 200 nM, and the fluorescent peptide was added at a final concentration of 5 nM. The wells were treated with varying concentrations of inhibitor compounds, with a 5% final DMSO content. Protein and inhibitors were incubated at 37 °C for 1 h. Then the fluorescence peptide was added, and then the plate was incubated for another 20 min prior to the fluorescence readout (extinction wavelength: 475 nm, emission wavelength: 520 nm). The measurements were carried out using 3 parallel biological replicas. Fluorescence polarization was calculated from the perpendicular and parallel fluorescence intensities and then plotted against concentration. The IC50 values were determined after fitting […] dose–response curves on data points using GraphPad Prism 8.0.1. software.
Figure S6. Fluorescence polarization assay results. Nonlinear curve fitting was used ([Inhibitor] vs. response - Variable slope (four parameters)) with least squares fitting. IC50s are presented with 95% confidence intervals, measurements were done in 3 parallel biological replicas.

Another assay deals with STAT3 protein (Homo sapiens, UniProt P40763). Kind of assay: Intact protein LC-MS labelling. The assay is classed as binding. The text has this:
1 Overview of the virtual screening workflow and hit follow-up. (a) Overview of the covalent docking virtual screening workflow, including representation of the key residues inside the binding site and highlighting the C259 residue. Remaining molecules after each step are included in parentheses. (b) Schematic representation of the expected mass peaks and shifts from the MS results for single and multiple labeling. The values assigned to the peaks for other than the peak corresponding to the unlabeled protein represents mass shift(s) resulting from successful labeling.
RPLC-MS analysis of the intact proteins were performed on a a Triple TOF 5600+ hybrid Quadrupole-TOF LC/MS/MS system (Sciex, MA, USA) equipped with a DuoSpray IonSource coupled with a Shimadzu Prominence LC20 UFLC (Shimadzu, Japan) system consisting of quaternary pump, an autosampler and a thermostatted column compartment. Chromatographic separation was achieved on the Discovery® BIO Wide Pore C-18-5 (250 mm × 2.1mm, 5 μm, 300 Å) HPLC column. Sample was eluted in gradient elution mode using solvent A (0.1% formic acid in water) and solvent B (0.1% formic acid in ACN). The initial condition was 5% B for 7 min, followed by a linear gradient to 90% B by […], from 55 to 63 min 90% B was retained; and from 63 to 65 min back to initial condition with 5 % eluent B and retained for 10 min. Flow rate was set to 0.2 ml/min. […]

T1 sequence (P40763 127-688): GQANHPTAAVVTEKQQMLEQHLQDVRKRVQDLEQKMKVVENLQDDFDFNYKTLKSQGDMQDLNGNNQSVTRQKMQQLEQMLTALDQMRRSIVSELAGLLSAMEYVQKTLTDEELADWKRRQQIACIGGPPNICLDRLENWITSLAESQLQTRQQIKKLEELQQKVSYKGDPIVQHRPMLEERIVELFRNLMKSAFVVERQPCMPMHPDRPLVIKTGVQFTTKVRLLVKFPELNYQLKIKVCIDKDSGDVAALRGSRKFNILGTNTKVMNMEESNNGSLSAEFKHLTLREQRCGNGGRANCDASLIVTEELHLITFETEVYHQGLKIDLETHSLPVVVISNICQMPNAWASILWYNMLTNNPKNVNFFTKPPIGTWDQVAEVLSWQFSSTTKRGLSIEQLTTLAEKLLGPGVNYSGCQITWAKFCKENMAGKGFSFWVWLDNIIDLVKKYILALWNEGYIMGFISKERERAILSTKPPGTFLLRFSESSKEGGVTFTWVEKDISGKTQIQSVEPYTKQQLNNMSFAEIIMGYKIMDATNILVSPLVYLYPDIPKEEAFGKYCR
Chain of STAT3 protein (P40763 127-688 limits assumed): as the sequence (P40763 127-688) above

Turning to `C=CC(=O)N1CCC(C(=O)N2CCN(C(=O)Cc3ccccc3C)CC2)CC1` [K10], in assay [1], the half-maximal inhibitory concentration (IC50) is 94.6 µM and 94.5 µM.

Consider `CCC(=O)N1CCCC(O)(C(=O)NCc2ccc3c(c2)OCO3)C1` (centres unmarked) [10b, N-(benzo[d][1,3]dioxol-5-ylmethyl)-3-hydroxy-1-propionylpiperidine-3-carboxamide], for which the concentration for half-maximal inhibition (IC50) in assay [1] amounted to 86.7 ± 49.9 µM.

With `CCC(=O)N1CCCC(C(=O)NCc2ccc3c(c2)OCO3)C1` (centres unmarked) [10a, N-(benzo[d][1,3]dioxol-5-ylmethyl)-1-propionylpiperidine-3-carboxamide], the IC50 in assay [1] came out at 141 ± 53.4 µM.

`C=CC(=O)N1CCC(C(=O)NCC(O)c2c(F)cccc2F)CC1` (centres unmarked) [K6] had a half-maximal inhibitory concentration (IC50) in assay [1] of 44.9 ± 22.7 µM.

In turn, `C=CC(=O)N1CCCC(C(=O)NCc2cc(Br)c3c(c2)OCO3)C1` (centres unmarked) [K2] displayed an IC50 in assay [1] of 40.7 ± 16.7 µM.

`C=CC(=O)N1CC(C(=O)NCCN2CC3CCCCN3C2=O)C1` (centres unmarked) [K3] came in with an IC50 in assay [1] of 255 ± 124 µM.

The molecule `C=CC(=O)N1CCCC(C(=O)NCc2ccc3c(c2)OCO3)C1` (centres unmarked) [6a, 1-acryloyl-N-(benzo[d][1,3]dioxol-5-ylmethyl)piperidine-3-carboxamide] came in with an IC50 in assay [1] of 50.4 ± 39.4 µM.

In assay [1], `C=CC(=O)N1CCCC(O)(C(=O)NCc2ccc3c(c2)OCO3)C1` (centres unmarked) [6b, 1-acryloyl-N-(benzo[d][1,3]dioxol-5-ylmethyl)-3-hydroxypiperidine-3-carboxamide] came in with a half-maximal inhibitory concentration (IC50) of 2.91 ± 0.66 µM. Moreover, on STAT3 protein, the “Covalent labelling of STAT3 (single vs multiple)” value was “single labeling”.

As to `C=CS(=O)(=O)N1CCCC(C(=O)NCc2ccc3c(c2)OCO3)C1` (centres unmarked) [compound 8, N-(benzo[d][1,3]dioxol-5-ylmethyl)-1-(vinylsulfonyl)piperidine-3-carboxamide], the 50% inhibitory concentration (IC50) in assay [1] is 33.4 ± 5 µM. For the same molecule, the “Covalent labelling of STAT3 (single vs multiple)” value on STAT3 protein is “labeled the protein at multiple residues”.
